In patent US11312724B2 (ASCENTAGE PHARMA (SUZHOU) CO., LTD., priority 2021, dated 2022):

Legend:
MIA PaCa-2 cell = test: Cell proliferation assay (Celltiter-Glo), MIA PaCa-2; type: cell-based; conditions: Homo sapiens, MIA PaCa-2, 72 h, 3 days
Experimental: (§1) Cell Proliferation Assay:
(§2) NCI-H358 cell and MIA PaCa-2 cell was cultured in RPMI-1640 supplemented with 10% FBS in humidified incubator at 37° C., 5% CO2. To asses the effect of Compounds of the Disclosure on cell proliferation, exponentially growing cells (5000 cells/well) were plated onto 96-well plates. After cell seeding, a representative Compounds of the Disclosure were added to the cell media (in concentrations ranging from 0 to 10 μM, 3/dilution series). After 3 days, 30 μL Celltiter-Glo reagent was added, and the luminescent signal was determined according to supplier's instruction. The dose response curves and IC50 values were generated using Prism.

NCI-H358 cell = test: Cell proliferation assay (Celltiter-Glo), NCI-H358; type: cell-based; conditions: Homo sapiens, NCI-H358, 72 h, 3 days
Experimental: as §1, §2

| SMILES | IC50 (MIA PaCa-2 cell) [nM] | IC50 (NCI-H358 cell) [nM] |
| --- | --- | --- |
| C=CC(=O)N1CCN(c2nc(OCC3CCCN3C)nc3c2CC[C@]2(CCc4ccccc42)C3)C[C@@H]1CC#N (single isomer, unassigned) [Cpd. No. 4] | 5 | 13 |
| C=CC(=O)N1CCN(c2nc(OCC3CCCN3C)nc3c2CC[C@@]2(CCc4ccccc42)C3)C[C@@H]1CC#N (single isomer, unassigned) [Cpd. No. 5] | 400 | 520 |
| C=CC(=O)N1CCN(c2nc(OC[C@@H]3[C@@H]4C[C@@H]4CN3C)nc3c2CC[C@@]2(CCc4c(Cl)cccc42)C3)C[C@@H]1CC#N (single isomer, unassigned) [Cpd. No. 47] | 4.9 | 15 |
| C=CC(=O)N1CCN(c2nc(OC[C@@H]3[C@H]4C[C@H]4CN3C)nc3c2CC[C@@]2(CCc4c(Cl)cccc42)C3)C[C@@H]1CC#N (single isomer, unassigned) [Cpd. No. 48] | 4.3 | 6 |
| C=CC(=O)N1CCN(c2nc(OC[C@@H]3CCCN3C)nc3c2CCC2(CCCc4ccccc42)C3)CC1 (stereo partly drawn) [Cpd. No. 7, 1-(4-(2′-(((S)-1-methylpyrrolidin-2-yl)methoxy)-3,4,5′,8′-tetrahydro-2H,6′H-spiro[naphthalene-1,7′-quinazolin]-4′-yl)piperazin-1-yl)prop-2-en-1-one] | 850 | 1390 |
| C=CC(=O)N1CCN(c2nc(OC[C@@H]3CCCN3C)nc3c2CCC2(CCCc4ccccc42)C3)[C@@H](C)C1 (stereo partly drawn) [Cpd. No. 8, 1-((3S)-3-methyl-4-(2′-(((S)-1-methylpyrrolidin-2-yl)methoxy)-3,4,5′,8′-tetrahydro-2H,6′H-spiro[naphthalene-1,7′-quinazolin]-4′-yl)piperazin-1-yl)prop-2-en-1-one] | 500 | 940 |
| C=CC(=O)N1CCN(c2nc(OC[C@@H]3CCCN3C)nc3c2CCC2(CCc4ccccc42)C3)CC1 (stereo partly drawn) [Cpd. No. 9, 1-(4-(2′-(((S)-1-methylpyrrolidin-2-yl)methoxy)-2,3,5′,8′-tetrahydro-6′H-spiro[indene-1,7′-quinazolin]-4′-yl)piperazin-1-yl)prop-2-en-1-one] | 1730 | 3270 |
| C=CC(=O)N1CCN(c2nc(OC[C@@H]3CCCN3C)nc3c2CCC2(CCc4ccccc42)C3)[C@@H](C)C1 (stereo partly drawn) [Cpd. No. 10, 1-((3S)-3-methyl-4-(2′-(((S)-1-methylpyrrolidin-2-yl)methoxy)-2,3,5′,8′-tetrahydro-6′H-spiro[indene-1,7′-quinazolin]-4′-yl)piperazin-1-yl)prop-2-en-1-one] | 1180 | 2230 |

Further molecules by falling IC50 (MIA PaCa-2 cell), results first:

| IC50 (MIA PaCa-2 cell) [nM] | IC50 (NCI-H358 cell) [nM] | SMILES |
| --- | --- | --- |
| 810 | 660 | C=C(F)C(=O)N1CCN(c2nc(OC[C@@H]3CCCN3C)nc3c2CCC2(COCc4cccc(F)c42)C3)C[C@@H]1CC#N (some centres unmarked) |
| 170 | 210 | C=CC(=O)N1CCN(c2nc(OC[C@@H]3CCCN3C)nc3c2CCC2(C3)OCCc3ccccc32)C[C@@H]1CC#N (stereo partly drawn) [Cpd. No. 6, 2-((2S)-1-acryloyl-4-(2′-(((S)-1-methylpyrrolidin-2-yl)methoxy)-5′,8′-dihydro-6′H-spiro[isochromane-1,7′-quinazolin]-4′-yl)piperazin-2-yl)acetonitrile] |
| 140 | 290 | C=CC(=O)N1CCN(c2nc(OC[C@@H]3CCCN3C)nc3c2CCC2(CCCc4ccccc42)C3)C[C@H]1CC#N (stereo partly drawn) [Cpd. No. 3, 2-((2R)-1-acryloyl-4-(2′-(((S)-1-methylpyrrolidin-2-yl)methoxy)-3,4,5′,8′-tetrahydro-2H,6′H-spiro[naphthalene-1,7′-quinazolin]-4′-yl)piperazin-2-yl)acetonitrile] |
| 76 | 440 | C=CC(=O)N1CCN(c2nc(OC[C@@H]3CCCN3C)nc3c2CC[C@@]2(CCCc4ccccc42)C3)C[C@@H]1CC#N (single isomer, unassigned) [Cpd. No. 2] |
| 3.6 | 16 | C=CC(=O)N1CCN(c2nc(OC[C@@H]3CCCN3C)nc3c2CC[C@]2(CCCc4ccccc42)C3)C[C@@H]1CC#N (single isomer, unassigned) [Cpd. No. 1] |
